Test results as given in the NIST ThermoML archive (doi:10.1021/je050223a).

What was measured:
[1] = 101.33 kPa, Liquid
[2] = xn = mol fraction of the nth substance listed; conditions: 101.33 kPa, Liquid

C=C(C)C(=O)OCCO [2-hydroxyethyl 2-methyl-2-propenoate]
[1]
Conditions | mass density [kg/m3] | viscosity [mPa·s]
298.15 K | 1067.1 | 5.784
308.15 K | 1057.7 | 4.194
318.15 K | 1048.6 | 3.181

CCCCO [butan-1-ol]
[1]
Conditions | mass density, 298.15 K [kg/m3] | mass density, 303.15 K [kg/m3] | mass density, 308.15 K [kg/m3] | mass density, 313.15 K [kg/m3] | viscosity, 298.15 K [mPa·s] | viscosity, 303.15 K [mPa·s] | viscosity, 308.15 K [mPa·s] | viscosity, 313.15 K [mPa·s]
Capillary tube (Ostwald / Ubbelohde) method | – | – | – | – | 2.566 | 2.265 | 1.998 | 1.778
Pycnometric method | 805.6 | 802.1 | 798 | 794.5 | – | – | – | –

CCOCCC(=O)OCC [ethyl β-ethoxypropionate] + C=C(C)C(=O)OCc1ccccc1
[2]
Conditions | mass density, 298.15 K [kg/m3] | mass density, 308.15 K [kg/m3] | mass density, 318.15 K [kg/m3] | viscosity, 298.15 K [mPa·s] | viscosity, 308.15 K [mPa·s] | viscosity, 318.15 K [mPa·s]
x1 = 0.1 | 1027 | 1017.9 | 1008.9 | 2.16 | 1.767 | 1.479
x1 = 0.2 | 1019.1 | 1009.9 | 1000.7 | 2.027 | 1.664 | 1.398
x1 = 0.3 | 1010.9 | 1001.5 | 992.1 | 1.91 | 1.571 | 1.323
x1 = 0.4 | 1002.3 | 992.7 | 983.2 | 1.795 | 1.48 | 1.247
x1 = 0.4999 | 993.4 | 983.7 | 974 | 1.681 | 1.391 | 1.173
x1 = 0.6 | 984.2 | 974.4 | 964.5 | 1.569 | 1.303 | 1.101
x1 = 0.7 | 974.7 | 964.8 | 954.7 | 1.457 | 1.215 | 1.029
x1 = 0.8 | 964.9 | 954.9 | 944.6 | 1.347 | 1.129 | 0.961
x1 = 0.9 | 954.3 | 944.3 | 934.1 | 1.242 | 1.047 | 0.899
x1 = 1 | 943.2 | 933.4 | 923.3 | 1.176 | 0.996 | 0.859

C=C(C)C(=O)OCCO [2-hydroxyethyl 2-methyl-2-propenoate] + CCOCCC(=O)OCC
[2], x2 = 0
Conditions | mass density [kg/m3] | viscosity [mPa·s]
298.15 K | 1067.1 | 5.784
308.15 K | 1057.7 | 4.194
318.15 K | 1048.6 | 3.181

C=C(C)C(=O)O [2-methyl-2-propenoic acid]
[1]
Conditions | mass density [kg/m3] | viscosity [mPa·s]
298.15 K | 1009.5 | 1.267
308.15 K | 999.4 | 1.078
318.15 K | 989.2 | 0.945

C=C(C)C(=O)O [2-methyl-2-propenoic acid] + CCOCCC(=O)OCC
[2], x2 = 0
Conditions | mass density [kg/m3] | viscosity [mPa·s]
298.15 K | 1009.5 | 1.267
308.15 K | 999.4 | 1.078
318.15 K | 989.2 | 0.945

CCOCCC(=O)OCC [ethyl β-ethoxypropionate] + C=C(C)C(=O)OCCO
[2]
Conditions | mass density, 298.15 K [kg/m3] | mass density, 308.15 K [kg/m3] | mass density, 318.15 K [kg/m3] | viscosity, 298.15 K [mPa·s] | viscosity, 308.15 K [mPa·s] | viscosity, 318.15 K [mPa·s]
x1 = 0.1 | 1053 | 1043.6 | 1034.4 | 4.507 | 3.352 | 2.598
x1 = 0.2 | 1039.1 | 1029.6 | 1020.3 | 3.696 | 2.821 | 2.239
x1 = 0.3 | 1025.6 | 1016.1 | 1006.6 | 3.072 | 2.379 | 1.918
x1 = 0.4 | 1012.7 | 1003.1 | 993.5 | 2.503 | 1.98 | 1.611
x1 = 0.5 | 1000.2 | 990.5 | 980.8 | 2.156 | 1.731 | 1.425
x1 = 0.6 | 988.1 | 978.4 | 968.6 | 1.833 | 1.495 | 1.243
x1 = 0.6999 | 976.5 | 966.8 | 956.9 | 1.627 | 1.34 | 1.127
x1 = 0.8 | 965.2 | 955.5 | 945.6 | 1.417 | 1.181 | 1.007
x1 = 0.9 | 954.3 | 944.6 | 934.6 | 1.269 | 1.065 | 0.911
x1 = 1 | 943.2 | 933.4 | 923.3 | 1.176 | 0.996 | 0.859

CCOCCC(=O)OCC [ethyl β-ethoxypropionate] + C=C(C)C(=O)O
[2]
Conditions | mass density, 298.15 K [kg/m3] | mass density, 308.15 K [kg/m3] | mass density, 318.15 K [kg/m3] | viscosity, 298.15 K [mPa·s] | viscosity, 308.15 K [mPa·s] | viscosity, 318.15 K [mPa·s]
x1 = 0.1 | 1000.5 | 990.7 | 980.6 | 1.349 | 1.139 | 0.986
x1 = 0.1999 | 992.4 | 982.7 | 972.8 | 1.425 | 1.198 | 1.028
x1 = 0.3 | 984.9 | 975.1 | 965.2 | 1.504 | 1.257 | 1.075
x1 = 0.4 | 978.1 | 968.3 | 958.4 | 1.551 | 1.293 | 1.103
x1 = 0.5 | 971.5 | 961.7 | 951.9 | 1.516 | 1.262 | 1.08
x1 = 0.6 | 965.3 | 955.6 | 945.7 | 1.439 | 1.211 | 1.029
x1 = 0.7 | 959.5 | 949.8 | 939.8 | 1.369 | 1.156 | 0.982
x1 = 0.8 | 954.1 | 944.4 | 934.4 | 1.313 | 1.108 | 0.944
x1 = 0.8999 | 948.5 | 938.9 | 929.1 | 1.243 | 1.049 | 0.899
x1 = 1 | 943.2 | 933.4 | 923.3 | 1.176 | 0.996 | 0.859

C=C(C)C(=O)OCc1ccccc1 [benzyl methacrylate] + CCOCCC(=O)OCC
[2], x2 = 0
Conditions | mass density [kg/m3] | viscosity [mPa·s]
298.15 K | 1034.7 | 2.302
308.15 K | 1025.8 | 1.885
318.15 K | 1017 | 1.58

CCOCCC(=O)OCC [ethyl β-ethoxypropionate]
[1]
Conditions | mass density [kg/m3] | viscosity [mPa·s]
298.15 K | 943.2 | 1.176
308.15 K | 933.4 | 0.996
318.15 K | 923.3 | 0.859

C=C(C)C(=O)OCc1ccccc1 [benzyl methacrylate]
[1]
Conditions | mass density [kg/m3] | viscosity [mPa·s]
298.15 K | 1034.7 | 2.302
308.15 K | 1025.8 | 1.885
318.15 K | 1017 | 1.58
